# Key:
# Klebsiella pneumoniae = assay: Antimicrobial activity against Klebsiella pneumoniae 13882 by CLSI method; assay type: functional; settings: Klebsiella pneumoniae, 13882; read-out: MIC
# Bacillus subtilis = assay: Antimicrobial activity against Bacillus subtilis BD54 by CLSI method; assay type: functional; settings: Bacillus subtilis, BD54; read-out: MIC
# Pseudomonas aeruginosa [1] = assay: Antimicrobial activity against Pseudomonas aeruginosa PAO1 by CLSI method; assay type: functional; settings: Pseudomonas aeruginosa, PAO1; read-out: MIC
# Bacillus anthracis = assay: Antimicrobial activity against Bacillus anthracis Sterne by CLSI method; assay type: functional; settings: Bacillus anthracis, Sterne; read-out: MIC
# Escherichia coli [2] = assay: Antimicrobial activity against TolC-deficient Escherichia coli by CLSI method; assay type: functional; settings: Escherichia coli; read-out: MIC
# [3] = Cytotoxicity against human HeLa cells by MTS assay; assay type: cell-based; settings: HeLa cells
# Escherichia coli [4] = assay: Antimicrobial activity against TolC+ Escherichia coli 700 by CLSI method; assay type: functional; settings: Escherichia coli, 700; read-out: MIC
# Enterococcus faecalis = assay: Antimicrobial activity against vancomycin-resistant Enterococcus faecalis ATCC 51575 by CLSI method; assay type: functional; settings: Enterococcus faecalis, ATCC 51575; read-out: MIC
# Staphylococcus aureus = assay: Antimicrobial activity against methicillin-resistant Staphylococcus aureus 1094 by CLSI method; assay type: functional; settings: Staphylococcus aureus, 1094; read-out: MIC
# Pseudomonas aeruginosa [5] = assay: Antimicrobial activity against mexAB-oprM deficient Pseudomonas aeruginosa PAO1 harboring by CLSI method; assay type: functional
Compound,MIC (Klebsiella pneumoniae),MIC (Bacillus subtilis),MIC (Pseudomonas aeruginosa [1]),MIC (Bacillus anthracis),MIC (Escherichia coli [2]),CC50 [3],MIC (Escherichia coli [4]),MIC (Enterococcus faecalis),MIC (Staphylococcus aureus),MIC (Pseudomonas aeruginosa [5])
CC1CNC(c2ccc3cc(-c4ccc(-c5cnc(N6CCCC6)nc5)cc4)[nH]c3c2)=N1 (stereo not given),> 80 µg/mL,40 µg/mL,> 80 µg/mL,40 µg/mL,40 µg/mL,1.1 µg/mL,> 80 µg/mL,> 80 µg/mL,40 µg/mL,–
COC1CN=C(c2ccc3cc(-c4ccc(-c5cc6ccc(C7=NCC(OC)CN7)cc6o5)cc4)[nH]c3c2)NC1 (stereo not given),1.25 µg/mL,0.08 µg/mL,> 80 µg/mL,0.31 µg/mL,0.24 µg/mL,6 µg/mL,2.5 µg/mL,0.63 µg/mL,0.31 µg/mL,–
c1cc2cc(-c3ccc(-c4nc5ccc(C6=NCCCN6)cc5[nH]4)cc3)[nH]c2cc1C1=NCCCN1,5 µg/mL,0.08 µg/mL,2.5 µg/mL,0.31 µg/mL,0.31 µg/mL,27.6 µg/mL,2.5 µg/mL,0.31 µg/mL,0.31 µg/mL,2.5 µg/mL
FC1CN=C(c2ccc3cc(-c4ccc(-c5cc6ccc(C7=NCC(F)CN7)cc6o5)cc4)[nH]c3c2)NC1 (stereo not given),0.63 µg/mL,0.16 µg/mL,5 µg/mL,0.31 µg/mL,0.27 µg/mL,47.5 µg/mL,1.25 µg/mL,0.31 µg/mL,0.31 µg/mL,2.5 µg/mL
c1cc2cc(-c3ccc(-c4cnc(N5CCCC5)nc4)cc3)[nH]c2cc1C1=NCCCN1,> 80 µg/mL,0.63 µg/mL,> 80 µg/mL,0.63 µg/mL,0.63 µg/mL,5.7 µg/mL,> 80 µg/mL,5 µg/mL,2.5 µg/mL,–
Cc1c(-c2ccc(-c3cc4ccc(C5=NCCCN5)cc4o3)cc2)[nH]c2cc(C3=NCCCN3)ccc12,0.31 µg/mL,0.08 µg/mL,1.25 µg/mL,0.08 µg/mL,0.31 µg/mL,1.5 µg/mL,0.31 µg/mL,0.16 µg/mL,0.16 µg/mL,–
FC1CN=C(c2ccc3cc(-c4ccc(-c5cc6ccc(C7=NCC(F)CN7)cc6o5)cn4)[nH]c3c2)NC1 (stereo not given),2.5 µg/mL,0.16 µg/mL,8.3 µg/mL,0.63 µg/mL,0.31 µg/mL,19.6 µg/mL,8.3 µg/mL,0.63 µg/mL,0.83 µg/mL,–
Fc1cc(-c2cc3ccc(C4=NCCCN4)cc3[nH]2)ccc1-c1cc2ccc(C3=NCCCN3)cc2o1,0.63 µg/mL,0.08 µg/mL,2.5 µg/mL,0.08 µg/mL,0.31 µg/mL,14.3 µg/mL,0.63 µg/mL,0.16 µg/mL,0.16 µg/mL,–
c1cc2cc(-c3ccc(-c4cc5ccc(C6=NCCCN6)cc5o4)s3)[nH]c2cc1C1=NCCCN1,2.5 µg/mL,0.08 µg/mL,10 µg/mL,0.16 µg/mL,0.31 µg/mL,8.7 µg/mL,0.63 µg/mL,0.31 µg/mL,0.31 µg/mL,–
OC1CN=C(c2ccc3cc(-c4ccc(-c5cc6ccc(C7=NCC(O)CN7)cc6o5)cc4)[nH]c3c2)NC1 (stereo not given),1.09 µg/mL,0.08 µg/mL,6.3 µg/mL,0.55 µg/mL,0.16 µg/mL,11.9 µg/mL,2.5 µg/mL,0.31 µg/mL,0.31 µg/mL,15 µg/mL
c1cc2cc(-c3ccc(-c4cnc(N5CCOCC5)nc4)cc3)[nH]c2cc1C1=NCCCN1,70 µg/mL,0.78 µg/mL,> 80 µg/mL,0.55 µg/mL,0.63 µg/mL,2 µg/mL,35 µg/mL,3.75 µg/mL,7.5 µg/mL,–
c1cc2cc(-c3ccc(-c4nc5ccc(C6=NCCN6)cc5[nH]4)cc3)[nH]c2cc1C1=NCCN1,20 µg/mL,0.16 µg/mL,20 µg/mL,5 µg/mL,0.31 µg/mL,8.6 µg/mL,10 µg/mL,0.63 µg/mL,1.25 µg/mL,40 µg/mL
c1cc2cc(-c3ccc(-c4cc5ccc(C6=NCCN6)cc5o4)cc3)[nH]c2cc1C1=NCCN1,0.94 µg/mL,0.16 µg/mL,10 µg/mL,0.31 µg/mL,0.24 µg/mL,9.7 µg/mL,0.47 µg/mL,0.16 µg/mL,0.16 µg/mL,15 µg/mL
CC1CNC(c2ccc3cc(-c4ccc(-c5cc6ccc(C7=NC(C)CN7)cc6o5)s4)[nH]c3c2)=N1 (stereo not given),20 µg/mL,0.31 µg/mL,26.7 µg/mL,0.52 µg/mL,0.63 µg/mL,14.5 µg/mL,1.25 µg/mL,0.63 µg/mL,1.04 µg/mL,–
FC1CN=C(c2ccc3cc(-c4ccc(-c5cc6ccc(C7=NCC(F)CN7)cc6o5)s4)[nH]c3c2)NC1 (stereo not given),2.5 µg/mL,0.16 µg/mL,53.3 µg/mL,0.31 µg/mL,0.31 µg/mL,22.5 µg/mL,1.25 µg/mL,0.63 µg/mL,0.63 µg/mL,–

# Reference: ChEMBL document CHEMBL3352668, “Synthesis and antibacterial evaluation of new, unsymmetrical triaryl bisamidine compounds” (Bioorg Med Chem Lett, 2014)
